Experimental data taken from patent US5066676A, “Sulfonamido derivative inhibiting the aldose reductase enzyme system and pharmaceutical compositions containing them” (Laboratori Baldacci SpA, priority 1987, dated 1991).

Tests used:
aldose reductase = target: T1, aldose reductase (Bos taurus, UniProt P16116); assay: In vitro inhibition of aldose reductase activity of raw extracts from bovine crystalline lens; assay type: biochemical; conditions: glyceraldehyde substrate, NADPH, pH 6.8, 37° C.; read-out: IC50 on the aldose reductase activity of raw extracts originating from bovine crystalline lens
T1 construct: 4 bovine crystalline lenses (8 g) are homogenized by means of Potter in ice bath; from tissue; host or cells: bovine crystalline lens
Protocol: "In vitro" tests have been carried out to evalute the inhibition of the aldose reductase activity, prepared from the extract of bovine crystalline lenses.
PREPARATION OF THE RAW EXTRACTS
4 bovine crystalline lenses (8 g) are homogenized by means of Potter in ice bath with 40 ml of 50 mM phosphate buffer, pH 6.8, containing 2-mercaptoethanol pH ([…]). After centrifugation (12.000×g -20 min-4° C.) the supernatant is brought to 40% saturation with an ammonium sulphate and centrifugated again (14.000×g). The supernatant is then brought to the 80% saturation ((NH4)2 SO4) and, after centrifugation for 20 minutes and at 14.000×g, the sedimented matter is recovered and suspended in 7 ml of phosphate buffer. The enzymatic preparation is dialyzed by ultrafiltration with AMICON ultrafiltration cell.
DOSAGE OF THE ENZYMATIC ACTIVITY
The reference cuvette contains all the several substances apart from the substrate.

rat = assay: Toxicity per oral administration repeated in the rat (30 days); assay type: in vivo; conditions: 30 days, 100, 200, 300 mg/kg/die
Description: Toxicity per oral administration repeated in the rat (30 days)--Test protocol:
Compound Doses mg/kg/die

[1] = Acute toxicity of ARI 6 in the rat; conditions: in vivo
[2] = Acute toxicity of ARI 6 in the mouse; conditions: in vivo
[3] = system: diabetic cataract in the rat; assay: Action on the appearance of the diabetic cataract (rat); assay type: in vivo; conditions: for appearance of the diabetic cataract: Table 5, 25 mg/kg/die per os
Protocol: (§1) With the compound bearing the abbreviation ARI 6 the following tests have been carried out in the rat and in the rabbit.
Action on the appearance of the diabetic cataract (rat).
Effects of the administration of ARI 6 (25 mg/kg/die, per os)
on the appearance of the diabetic cataract in the rat.
The values are expressed as percentages. Within brackets there are indicated the animals for each group.
Effects of the administration of ARI-1 (25 mg/kg/die, per os)

[4] = system: galactosemic cataract in the rat; assay: Action on the appearance of the galactosemic cataract (rat); assay type: in vivo; design: appearance of the galactosemic cataract: unit not given here
Protocol: as §1
Action on the appearance of the galactosemic cataract (rat)
Effects of the administration of ARI-6 (5 and 25 mg/kg/die, os)
on the appearance of the galactosemic cataract in the rat.
[…] In the brackets the number of animals for each group is indicated.
The diet contains D-galactose 50%.
Effects of the administration of ARI-1 (5 and 25 mg/kg/die, os)

SMILES: CN(CC(=O)O)S(=O)(=O)c1ccc2oc3ccc(Cl)cc3c(=O)c2c1 [ARI 6, 7-chloro-2 (N-methyl-N-carboxymethyl) sulfamoylxanthone]
- IC50 (aldose reductase): 9.2 µM
- Microscope and hystomorphological examination (rat): no alteration
- death (rat): No death
- Behaviour and general status (rat; vs control group): no variation with respect to the control group
- Biochemical and hematological parameters (rat; vs controls): no significant variation with respect to the controls
- LD50 ([1]; ip, read-out: Acute toxicity in the rat ip): 1000 mg/kg
- LD50 ([1]; po, per os, read-out: Acute toxicity in the rat per os): 1000 mg/kg
- LD50 ([2]; ip, read-out: Acute toxicity in the mouse ip): 1000 mg/kg
- LD50 ([2]; po, per os, read-out: Acute toxicity in the mouse per os): 1000 mg/kg
- appearance of the diabetic cataract ([3]; day 5 from streptozotocine): 0.0%
- appearance of the diabetic cataract ([3]; day 10 from streptozotocine): 0.0%
- appearance of the diabetic cataract ([3]; day 15 from streptozotocine): 0.0%
- appearance of the diabetic cataract ([3]; day 20 from streptozotocine): 0.0%
- appearance of the diabetic cataract ([3]; day 25 from streptozotocine): 0.0%
- appearance of the diabetic cataract ([3]; day 30 from streptozotocine): 0.0%
- appearance of the diabetic cataract ([3]; day 35 from streptozotocine): 0.0%
- appearance of the diabetic cataract ([3]; day 40 from streptozotocine): 20.0%
- appearance of the diabetic cataract ([3]; day 45 from streptozotocine): 30.0%
- appearance of the diabetic cataract ([3]; day 50 from streptozotocine): 100.0%
- delay of the appearance of the diabetic cataract ([3]; rat, 25 mg/kg, vs controls): about 30 days
- appearance of the galactosemic cataract ([4]; Table 4, 5 mg/kg/die os, day 5 of diet): 0.0
- appearance of the galactosemic cataract ([4]; Table 4, 5 mg/kg/die os, day 10 of diet): 0.0
- appearance of the galactosemic cataract ([4]; Table 4, 5 mg/kg/die os, day 15 of diet): 0.0
- appearance of the galactosemic cataract ([4]; Table 4, 5 mg/kg/die os, day 20 of diet): 0.0
- appearance of the galactosemic cataract ([4]; Table 4, 5 mg/kg/die os, day 25 of diet): 15.0
- appearance of the galactosemic cataract ([4]; Table 4, 5 mg/kg/die os, day 30 of diet): 20.0
- appearance of the galactosemic cataract ([4]; Table 4, 5 mg/kg/die os, day 35 of diet): 40.0
- appearance of the galactosemic cataract ([4]; Table 4, 5 mg/kg/die os, day 40 of diet): 100.0
- appearance of the galactosemic cataract ([4]; Table 4, 5 mg/kg/die os, day 45 of diet): 100.0
- appearance of the galactosemic cataract ([4]; Table 4, 5 mg/kg/die os, day 50 of diet): 100.0
- appearance of the galactosemic cataract ([4]; Table 4, 25 mg/kg/die os, day 5 of diet): 0.0
- appearance of the galactosemic cataract ([4]; Table 4, 25 mg/kg/die os, day 10 of diet): 0.0
- appearance of the galactosemic cataract ([4]; Table 4, 25 mg/kg/die os, day 15 of diet): 0.0
- appearance of the galactosemic cataract ([4]; Table 4, 25 mg/kg/die os, day 20 of diet): 0.0
- appearance of the galactosemic cataract ([4]; Table 4, 25 mg/kg/die os, day 25 of diet): 0.0
- appearance of the galactosemic cataract ([4]; Table 4, 25 mg/kg/die os, day 30 of diet): 0.0
- appearance of the galactosemic cataract ([4]; Table 4, 25 mg/kg/die os, day 35 of diet): 0.0
- appearance of the galactosemic cataract ([4]; Table 4, 25 mg/kg/die os, day 40 of diet): 15.0
- appearance of the galactosemic cataract ([4]; Table 4, 25 mg/kg/die os, day 45 of diet): 25.0
- appearance of the galactosemic cataract ([4]; Table 4, 25 mg/kg/die os, day 50 of diet): 100.0
- delay for the appearance of the galactosemic cataract ([4]; rat, 5 mg/kg, vs controls): about 20 days
- effect on appearance of the galactosemic cataract (in words) ([4]; rat, higher doses): A more intense effect
